# Results as given in paper PMC8236845.
# pEC50: −log10 of the molar value. Where a name gives a salt, the structure may show the parent alone.
# Target: binding of recombinant, trimeric SARS-CoV-2 spike protein to recombinant human ACE2 (Severe acute respiratory syndrome coronavirus 2, UniProt P0DTC2, K986P/R682G/R683S/R685S/V987P)
# Assay: biochemical
# Parameters: species or system SARS-CoV-2 / human
# Conditions: not given
SMILES,% Inhibition [%],inhibition of spike-ACE2 binding in the screen,% inhibition in first-round screen [%]
CO/N=C(\C(=O)N[C@@H]1C(=O)N2C(C(=O)OCOC(=O)C(C)(C)C)=C(/C=C\c3scnc3C)CS[C@H]12)c1csc(N)n1 [Cefditoren Pivoxil],96,,
CC[C@@]1(O)C(=O)OCc2c1cc1n(c2=O)Cc2cc3c(CN(C)C)c(O)ccc3nc2-1 [Topotecan],,did not inhibit,
OC(c1cc(C(F)(F)F)nc2c(C(F)(F)F)cccc12)C1CCCCN1 (stereo not drawn) [Mefloquine],,,77
CO[C@H]1C(=O)[C@]2(C)[C@@H](OC)C[C@H]3OC[C@@]3(OC(C)=O)[C@H]2[C@H](OC(=O)c2ccccc2)[C@]2(O)C[C@H](OC(=O)[C@H](O)[C@@H](NC(=O)OC(C)(C)C)c3ccccc3)C(C)=C1C2(C)C [Cabazitaxel],86,,
O=C(NC1CCN(CCCCC2(C(=O)NCC(F)(F)F)c3ccccc3-c3ccccc32)CC1)c1ccccc1-c1ccc(C(F)(F)F)cc1 [Lomitapide Mesylate],93,,
CCOC(=O)c1c(CSc2ccccc2)n(C)c2cc(Br)c(O)c(CN(C)C)c12.Cl [Arbidol HCl],95,,
COc1cc(-c2coc3cc4c(c(OC)c3c2=O)OCO4)cc(OC)c1OC [Irisflorentin],97,,
N#Cc1ccc2[nH]cc(CCCCN3CCN(c4ccc5oc(C(N)=O)cc5c4)CC3)c2c1 [Vilazodone HCl],99,,
Cc1c(O)cccc1C(=O)N[C@@H](CSc1ccccc1)[C@H](O)CN1C[C@H]2CCCC[C@H]2C[C@H]1C(=O)NC(C)(C)C [Nelfinavir Mesylate],94,,
"CC[C@@]1(O)C(=O)OCc2c1cc1n(c2=O)Cc2cc3cc(O)ccc3nc2-1 [S-(10)-hydroxycamptothecin, (S)-10-Hydroxycamptothecin]",100,,
"CO[C@H]1C[C@@H]2CC[C@@H](C)[C@@](O)(O2)C(=O)C(=O)N2CCCC[C@H]2C(=O)O[C@H]([C@H](C)C[C@@H]2CC[C@H](n3cnnn3)[C@H](OC)C2)CC(=O)[C@H](C)/C=C(\C)[C@@H](O)[C@@H](OC)C(=O)[C@H](C)C[C@H](C)/C=C/C=C/C=C/1C [Zotarolimus(ABT-578), Zotarolimus]",96,,
CN1C[C@H](C(=O)N[C@]2(C)O[C@@]3(O)[C@@H]4CCCN4C(=O)[C@H](Cc4ccccc4)N3C2=O)C[C@@H]2c3cccc4[nH]cc(c34)C[C@H]21 [Dihydroergotamine Mesylate],94,,
COc1cc2nccc(Oc3ccc(NC(=O)NC4CC4)c(Cl)c3)c2cc1C(N)=O [Lenvatinib Mesylate],94,,
CCN(CC)Cc1cc(Nc2ccnc3cc(Cl)ccc23)ccc1O [Amodiaquine hydrochloride],90,,
CC(=O)O[C@@]12CO[C@@H]1C[C@H](O)[C@@]1(C)C(=O)[C@H](O)C3=C(C)[C@@H](OC(=O)[C@H](O)[C@@H](NC(=O)OC(C)(C)C)c4ccccc4)C[C@@](O)([C@@H](OC(=O)c4ccccc4)[C@H]21)C3(C)C [Docetaxel Trihydrate],95,,
CCOC(=O)c1c(N)sc2c1CCN(Cc1ccccc1)C2.Cl [Tinoridine Hydrochloride],90,,
CC[C@@H]([C@H](C)O)n1ncn(-c2ccc(N3CCN(c4ccc(OC[C@@H]5CO[C@@](Cn6cncn6)(c6ccc(F)cc6F)C5)cc4)CC3)cc2)c1=O [Posaconazole],97,,

# Same assay, conditions: read-out: EC50 (corrected)
row,SMILES,pEC50
1,CCOC(=O)c1c(N)sc2c1CCN(Cc1ccccc1)C2.Cl [Tinoridine Hydrochloride],3.59
